We go through 5 molecules from article PMC10303200 (ACS Central Science, 2023).

Experiment [1] has as its target Sig7-Fc (Homo sapiens, UniProt Q9Y286). In words: COIN-CaR-nMS. The conditions noted are these: N-glycan natural libraries and purified oligosaccharides; pH 6.9; read-out: Kd. The experiment is classed as binding. Set-up: Siglec 7-Fc (Sig7-Fc, residue 1–345, MW 150 kDa); His6 (C); made in house; host or cells: wild-type CHO cells.
Experiment [2] concerns the target SNA (Sambucus nigra agglutinin) (Sambucus nigra, UniProt Q41358). Nature of the experiment: biochemical. The experiment is classed as binding.
Experiment [3] deals with MAA (Maackia amurensis agglutinin). In words: COIN-CaR-nMS. The experiment is classed as binding.
Experiment [4] has as its target SARS-CoV-2 RBD (Severe acute respiratory syndrome coronavirus 2, UniProt P0DTC2). In words: biochemical. The experiment is classed as binding. The conditions noted are these: pH 6.9.
In experiment [5] the target is MAA. In words: Isothermal titration calorimetry (ITC). The conditions noted are these: ammonium acetate 200 mM, 25 °C, read-out: apparent Kd by ITC (Literature). The experiment is classed as binding, Maackia amurensis. In general terms: In ITC the heat of successive injections is recorded.
Experiment [6] concerns the target Siglec-7. The conditions noted are these: ITC; cited from earlier work.
In experiment [7] the target is T1, GAL-3C (Homo sapiens, UniProt P17931). Also noted: human Galectin-3 (GAL-3C, residues 107–250, molecular weight (MW) 16 327 Da). The conditions noted are these: known Kd used to calculate glycan concentration; cited from earlier work.
T1 sequence (P17931 107-250): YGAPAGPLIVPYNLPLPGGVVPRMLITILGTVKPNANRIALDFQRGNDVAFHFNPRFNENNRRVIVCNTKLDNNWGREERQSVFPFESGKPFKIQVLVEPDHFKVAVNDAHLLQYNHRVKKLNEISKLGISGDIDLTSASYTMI
Experiment [8] addresses T2, AAL (Aleuria Aurantia lectin) (Aleuria aurantia, UniProt P18891).
T2 construct: purchased Vector Laboratories (Newark, CA, USA)
T2 sequence (P18891 1-313): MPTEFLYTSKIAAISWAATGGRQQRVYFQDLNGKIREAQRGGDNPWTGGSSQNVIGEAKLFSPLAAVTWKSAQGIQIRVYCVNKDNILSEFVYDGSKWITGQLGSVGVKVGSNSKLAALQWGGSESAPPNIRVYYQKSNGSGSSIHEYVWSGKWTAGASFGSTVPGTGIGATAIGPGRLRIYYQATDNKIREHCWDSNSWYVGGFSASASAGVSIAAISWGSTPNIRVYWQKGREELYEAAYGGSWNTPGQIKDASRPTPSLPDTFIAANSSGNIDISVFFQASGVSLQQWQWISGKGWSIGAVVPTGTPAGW
In words: COIN-CaR-nMS. The experiment is classed as binding. The conditions noted are these: N-glycan natural libraries; pH 6.9.

For experiment [9], the target named is RCA-I (Ricinus communis agglutinin) (Ricinus communis, UniProt P06750). In kind it is binding. As to conditions: pH 6.9; read-out: Kd (Native).
The target in experiment [10] is T3, DC-SIGN CRD (Homo sapiens, UniProt Q9NNX6).
T3 sequence (Q9NNX6 250-404): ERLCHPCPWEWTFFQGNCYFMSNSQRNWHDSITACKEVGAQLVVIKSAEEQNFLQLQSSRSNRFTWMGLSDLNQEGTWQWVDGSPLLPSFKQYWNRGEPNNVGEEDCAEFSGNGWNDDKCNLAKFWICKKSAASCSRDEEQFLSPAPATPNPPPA
In words: direct nMS affinity measurement. In kind it is binding. Set-up: The carbohydrate recognition domain (CRD) of DC-SIGN (residues 250–404, MW 17 794 Da); made in house. The conditions noted are these: pH 7.4.

Experiment [11] has as its target T4, GNA (Galanthus nivalis, UniProt P30617).
T4 sequence (P30617 24-128 limits assumed): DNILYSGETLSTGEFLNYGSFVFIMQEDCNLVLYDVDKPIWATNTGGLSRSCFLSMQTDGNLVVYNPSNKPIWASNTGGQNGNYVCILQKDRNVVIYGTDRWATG
Nature of the experiment: COIN-CaR-nMS. The conditions noted are these: purified glycan; ammonium acetate 200 mM, pH 6.9. The experiment is classed as binding.

The target of experiment [12] is T1, GAL-3C. Nature of the experiment: COIN-nMS affinity measurement. In kind it is binding. Set-up: human Galectin-3 (GAL-3C, residues 107–250, molecular weight (MW) 16 327 Da); key: NB: No binding detected. The conditions noted are these: glycans present as a mixture (G2, G5-G13); average of eight measurements; pH 6.9.
The target of experiment [13] is T5, GAL-7 homodimer (Homo sapiens, UniProt P47929).
T5 construct: made in house
T5 sequence (P47929 whole entry): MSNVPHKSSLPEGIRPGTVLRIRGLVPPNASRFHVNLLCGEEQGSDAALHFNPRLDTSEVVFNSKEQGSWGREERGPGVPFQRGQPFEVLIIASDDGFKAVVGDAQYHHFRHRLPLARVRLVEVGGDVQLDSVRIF
In words: direct nMS affinity measurement. In kind it is binding. Also noted: key: NB: No binding detected. As to conditions: glycans present as a mixture (G2, G5-G13); pH 6.9.

Experiment [14] addresses T4, GNA. In words: direct nMS (ESI-MS) measurement. The experiment is classed as binding. As to conditions: read-out: Kd by direct nMS (column Kd (Literature)).
The target in experiment [15] is T1, GAL-3C. Nature of the experiment: direct nMS (ESI-MS) affinity measurement at known concentrations. In kind it is binding. Set-up: human Galectin-3 (GAL-3C, residues 107–250, molecular weight (MW) 16 327 Da); key: NB: No binding detected. The conditions noted are these: glycans present as a mixture (G2, G5-G13); pH 6.9.
Experiment [16] concerns the target T5, GAL-7 homodimer. In words: COIN-nMS affinity measurement. In kind it is binding. As to conditions: glycans present as a mixture (G2, G5-G13); average of eight measurements; pH 6.9. Set-up: key: NB: No binding detected.
Experiment [17] deals with T3, DC-SIGN CRD. Nature of the experiment: COIN-nMS affinity measurement. In kind it is binding. Also noted: The carbohydrate recognition domain (CRD) of DC-SIGN (residues 250–404, MW 17 794 Da); made in house.

Values joined by “and” are separate entries in the source; they are usually repeats but may differ in a detail not shown here. Equal values may be shown once. Read-outs that look alike come from different tables or passages of the source.

Sequence of SNA (Sambucus nigra agglutinin) (Q41358 309-570 limits assumed): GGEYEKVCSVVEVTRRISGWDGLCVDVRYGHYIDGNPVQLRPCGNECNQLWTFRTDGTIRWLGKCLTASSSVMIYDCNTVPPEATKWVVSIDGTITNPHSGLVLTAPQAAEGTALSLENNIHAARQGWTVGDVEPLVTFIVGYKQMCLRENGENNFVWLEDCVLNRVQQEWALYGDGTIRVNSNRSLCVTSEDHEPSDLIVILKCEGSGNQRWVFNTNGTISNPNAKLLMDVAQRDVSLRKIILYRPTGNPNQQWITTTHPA
Sequence of SNA (Sambucus nigra agglutinin) (Q41358 29-289 partner limits assumed): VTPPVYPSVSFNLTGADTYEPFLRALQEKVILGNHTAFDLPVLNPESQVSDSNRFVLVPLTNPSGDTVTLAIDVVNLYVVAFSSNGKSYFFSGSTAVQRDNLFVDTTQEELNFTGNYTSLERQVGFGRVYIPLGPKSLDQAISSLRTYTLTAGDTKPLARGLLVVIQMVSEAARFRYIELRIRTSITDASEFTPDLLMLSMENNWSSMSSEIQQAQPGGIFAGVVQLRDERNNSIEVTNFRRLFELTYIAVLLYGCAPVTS
Sequence of Sig7-Fc (Q9Y286 19-345): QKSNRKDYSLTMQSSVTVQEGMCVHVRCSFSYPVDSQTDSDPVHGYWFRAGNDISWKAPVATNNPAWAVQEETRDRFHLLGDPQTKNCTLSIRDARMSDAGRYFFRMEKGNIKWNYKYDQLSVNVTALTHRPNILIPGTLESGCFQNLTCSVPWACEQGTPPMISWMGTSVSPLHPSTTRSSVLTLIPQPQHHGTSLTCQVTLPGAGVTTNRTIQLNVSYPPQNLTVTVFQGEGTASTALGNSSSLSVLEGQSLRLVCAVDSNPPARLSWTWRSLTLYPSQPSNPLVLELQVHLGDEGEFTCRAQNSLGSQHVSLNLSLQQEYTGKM

Turning to `CC(=O)N[C@H]1[C@H]([C@H](O)[C@H](O)CO)O[C@@](OC[C@H]2O[C@@H](O[C@H]3[C@H](O)[C@@H](NC(C)=O)C(O)O[C@@H]3CO)[C@H](O)[C@@H](O)[C@H]2O)(C(=O)O)C[C@@H]1O` (stereo partly drawn) [Glycan G23, α-D-Neu5Ac-(2→6)-β-D-Gal-(1→4)-D-GlcNAc], the Kd in experiment [1] is 265 ± 66 µM; in experiment [2] (Kd (COIN-CaR-nMS)) it was 0.6 µM; in [2] (Kd (COIN-CaR-nMS), two ligands) it was 700 nM and 900 nM and 400 nM (2×) and 300 nM and 600 nM; in [2] (pH 6.9, read-out: Kd, Native library (-NeuS)) it was 0.55 ± 0.16 µM; in experiment [4], 76 ± 9 µM. Besides, the “fold weaker binding than G25” value in experiment [3] was 2 fold.
As to `CC(=O)N[C@H]1[C@H]([C@H](O)[C@H](O)CO)O[C@@](O[C@H]2[C@@H](O)[C@@H](CO)O[C@@H](O[C@H]3[C@H](O)[C@@H](O)C(O)O[C@@H]3CO)[C@@H]2O)(C(=O)O)C[C@@H]1O` (stereo partly drawn) [Glycan G22, α-D-Neu5Ac-(2→3)-β-D-Gal-(1→4)-D-Glc], the Kd in [5] is 4 ± 2 µM; in experiment [6] it was 680 µM.
In the case of “α-D-GalNAc(1→3)-[α-L-Fuc(1→2)]-β-Gal(1→4)-D-GlcNAc [Glycan G24]”, the Kd in experiment [7] is 7.2 ± 0.4 µM.
Consider `CC(=O)N[C@H]1[C@H](O[C@H]2[C@H](O)[C@@H](NC(C)=O)C(O)O[C@@H]2CO[C@@H]2O[C@@H](C)[C@@H](O)[C@@H](O)[C@@H]2O)O[C@H](CO)[C@@H](O[C@@H]2O[C@H](CO[C@H]3O[C@H](CO)[C@@H](O)[C@H](O)[C@@H]3O[C@@H]3O[C@H](CO)[C@@H](O)[C@H](O)[C@H]3NC(C)=O)[C@@H](O)[C@H](O[C@H]3O[C@H](CO)[C@@H](O)[C@H](O)[C@@H]3O[C@@H]3O[C@H](CO)[C@@H](O)[C@H](O)[C@H]3NC(C)=O)[C@@H]2O)[C@@H]1O` (stereo partly drawn) [HexNAc4Hex3Fuc1], for which the Kd in [8] is 2.6 ± 0.57 µM; in experiment [9] it was 1.73 ± 0.08 µM.
`OC[C@H]1O[C@H](O[C@@H]2[C@@H](OC[C@H]3O[C@H](OC[C@H]4OC(O)[C@@H](O)[C@@H](O[C@H]5O[C@H](CO)[C@@H](O)[C@H](O)[C@@H]5O[C@H]5O[C@H](CO)[C@@H](O)[C@H](O)[C@@H]5O[C@H]5O[C@H](CO)[C@@H](O)[C@H](O)[C@@H]5O)[C@@H]4O)[C@@H](O)[C@@H](O[C@H]4O[C@H](CO)[C@@H](O)[C@H](O)[C@@H]4O[C@H]4O[C@H](CO)[C@@H](O)[C@H](O)[C@@H]4O)[C@@H]3O)O[C@H](CO)[C@@H](O)[C@@H]2O)[C@@H](O)[C@@H](O)[C@@H]1O` (stereo partly drawn) [Glycan G5, α-D-Man-(1→2)-α-D-Man-(1→6)-[Man-(1→2)-α-D-Man-(1→3)]-α-D-Man-(1→6)-[Man-(1→2)-α-D-Man-(1→2)-α-D-Man-(1→3)]-α-D-Man]: the Kd was determined as 230 ± 20 µM in [10] (glycans present as a mixture (G2, G5, G10, G14-G20)); 231 ± 17.3 µM in [10] (individual glycan, ammonium acetate 200 mM, 2.5 mM calcium); 553.2 ± 1 µM in [11]; 774 µM in experiment [14]; 235 ± 12.6 µM in experiment [17] (global fit of data sets at 75, 100, 125 µM glycan, read-out: Kd (COIN-nMS, global fit)); 212 ± 2.2 µM in experiment [17] (glycan concentration 75 µM, pH 7.4, read-out: Kd (COIN-nMS, individual experiments)). Besides, the Kd in experiment [17] (glycan concentration 100 µM, pH 7.4, read-out: Kd (COIN-nMS, individual experiments)) was determined as 246.7 ± 1 µM; in [17] (glycan concentration 125 µM, pH 7.4, read-out: Kd (COIN-nMS, individual experiments)), 234 ± 1.5 µM; in experiment [17] (glycans present as a mixture (G2, G5, G10, G14-G20), average of six measurements, pH 7.4, read-out: Kd (COIN-nMS)), 240 ± 40 µM. For the same molecule, the “Kd (COIN-nMS)” value in experiment [12] was “NB and do not bind”; in [16], “NB and do not bind”. The “Kd (nMS)” value in experiment [13] and in experiment [15] was “NB” each time.
